Test results as given in patent US20230107941A1, “HEPATITIS B CAPSID ASSEMBLY MODULATORS” (Venatorx Pharmaceuticals, Inc., priority 2019, published 2023).
Like-named read-outs stand apart in the source and are kept apart here.

Tests used:
HBV [1] = conditions: Phase 1b clinical trial, 600 mg bid dosing for 29 days; cited from earlier work
HepG2 cells = experiment: In vitro cytotoxicity assay (MTT cell viability) in HepG2 cells; format: cell-based, human
How it was run: (§1)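 CC50 was derived by 4-parameter fit of viability relative to vehicle controls, measured as MTT formazan absorbance at 492 nm after 3–4 h of reagent and DMSO solubilization. Before that, HepG2 cells seeded overnight at 20,000/well were incubated 7 days at 37°C with compound from 30 μM down to 1.0 nM in half-log steps.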

HBV [2] = experiment: In vitro antiviral assay: anti-HBV replication in HepAD38 cells (extracellular HBV DNA by QPCR); format: cell-based, hepatitis B virus (genotype D, serotype ayw); conditions: 7 days incubation, extracellular HBV DNA by QPCR, read-out: Anti-HBV EC50
How it was run: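 Read-out is extracellular HBV DNA (copies/mL, QPCR standard curve) after 7-day exposure of tet-free HepAD38 cells to 10-fold dilutions from 1 μM down to 10 pM. Values normalised to DMSO vehicle; EC50 from 4-parameter nonlinear regression, with entecavir validating each run.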

[3] = In vitro cytotoxicity assay (MTT cell viability) in HepG2 cells; format: cell-based, human; conditions: human
How it was run: as §1

[4] = Hepatitis B virus, HePAD38, 168 h

In the case of `O=C(Nc1cc(F)c(F)c(F)c1)c1ccc(F)c(S(=O)(=O)N2CCC(O)CC2)c1` [NVR 3-778], the “reduction in HBV DNA” value (HBV [1]) is given as −1.7 log 10.

Molecule `Cc1cc(NC(=O)c2c(C)c(C(=O)C(=O)NC3CC(S(C)(=O)=O)C3)n(C)c2C)ccc1F` (stereo not shown) [Example 32, N-(4-fluoro-3-methylphenyl)-1,2,4-trimethyl-5-(2-(((1r,3r)-3-(methylsulfonyl)cyclobutyl)amino)-2-oxoacetyl)-1H-pyrrole-3-carboxamide] has a CC50 (HepG2 cells; human, 7 days) of over 30000 nM and an EC50 (HBV [2]) of 50 to 499 nM.

Work on `Cc1cc(NC(=O)c2c(C)c(C(=O)C(=O)NC3(C)CC(OP(=O)(O)O)C3)n(C)c2C)ccc1F` (stereo not shown) [Example 64, sodium (1s,3s)-3-(2-(4-((4-fluoro-3-methylphenyl)carbamoyl)-1,3,5-trimethyl-1H-pyrrol-2-yl)-2-oxoacetamido)-3-methylcyclobutyl phosphate] yielded a CC50 (HepG2 cells; HepG2 cells, 7 days incubation, MTT, read-out: HepG2 CC50) of over 30000 nM and an EC50 (HBV [2]; [4]) of over 1000 nM.

In the case of `Cc1cc(NC(=O)c2c(C)c(C(=O)C(=O)N[C@H]3CC[C@@H](O)CC3)n(C)c2C(C)C)ccc1F` [Example 112, N-(4-fluoro-3-methylphenyl)-5-(2-(((1s,4s)-4-hydroxycyclohexyl)amino)-2-oxoacetyl)-2-isopropyl-1,4-dimethyl-1H-pyrrole-3-carboxamide], the CC50 at 7 days [3] is reported as over 30000 nM and the EC50 (HBV [2]; [4]) is reported as 50 to 499 nM.

Work on `Cc1cc(NC(=O)c2c(C)c(C(=O)C(=O)N[C@H]3CC[C@@H](O)CC3)n(C)c2C2CCCCC2)ccc1F` [Example 119, 2-cyclohexyl-N-(4-fluoro-3-methylphenyl)-5-(2-(((1s,4s)-4-hydroxycyclohexyl)amino)-2-oxoacetyl)-1,4-dimethyl-1H-pyrrole-3-carboxamide] yielded a CC50 at 7 days [3] of 5000 to 30000 nM and an EC50 (HBV [2]; [4]) of 500 to 1000 nM.

`Cc1c(C(=O)NCc2noc(C(F)(F)F)n2)c(C)n(C)c1C(=O)C(=O)NC(C)(C)C` [Example 58, 5-(2-(tert-butylamino)-2-oxoacetyl)-1,2,4-trimethyl-N-((5-(trifluoromethyl)-1,2,4-oxadiazol-3-yl)methyl)-1H-pyrrole-3-carboxamide] gave a CC50 at 7 days [3] of over 30000 nM and an EC50 (HBV [2]; [4]) of over 1000 nM.

`Cc1cc(NC(=O)c2c(C)c(C(=O)C(=O)N[C@@H]3CC[C@@H](O)CC3(C)C)n(C)c2C)ccc1F` (single isomer, unassigned) [Example 143] gave a CC50 at 7 days [3] of over 30000 nM and an EC50 (HBV [2]; [4]) of under 50 nM.

Work on `Cc1c(C(=O)Nc2cccc(Cl)n2)c(C)n(C)c1C(=O)C(=O)N[C@H](C)C(F)(F)F` [Example 77, (R)-N-(6-chloropyridin-2-yl)-1,2,4-trimethyl-5-(2-oxo-2-((1,1,1-trifluoropropan-2-yl)amino)acetyl)-1H-pyrrole-3-carboxamide] yielded a CC50 at 7 days [3] of over 30000 nM and an EC50 (HBV [2]; [4]) of 50 to 499 nM.

With `Cc1cc(NC(=O)c2c(C)c(C(=O)C(=O)N[C@H]3CC[C@@H](S(C)(=O)=O)CC3)n(C)c2-c2ccsc2)ccc1F` [Example 182, N-(4-fluoro-3-methylphenyl)-1,4-dimethyl-5-(2-(((1s,4s)-4-(methylsulfonyl)cyclohexyl)amino)-2-oxoacetyl)-2-(thiophen-3-yl)-1H-pyrrole-3-carboxamide] the CC50 at 7 days [3] was over 30000 nM and the EC50 (HBV [2]; [4]) was over 1000 nM.

For `Cc1cc(NC(=O)c2c(C)c(C(=O)C(=O)NCC(C)(C)O)n(C)c2C2CCCC2)ccc1F` [Example 135, 2-cyclopentyl-N-(4-fluoro-3-methylphenyl)-5-(2-((2-hydroxy-2-methylpropyl)amino)-2-oxoacetyl)-1,4-dimethyl-1H-pyrrole-3-carboxamide], the CC50 at 7 days [3] was over 30000 nM and the EC50 (HBV [2]; [4]) was 50 to 499 nM.

In the case of `Cc1cc(NC(=O)c2c(C)c(C(=O)C(=O)N[C@H]3CC[C@@H](O)CC3)n(C)c2-c2nccs2)ccc1F` [Example 177, N-(4-fluoro-3-methylphenyl)-5-(2-(((1s,4s)-4-hydroxycyclohexyl)amino)-2-oxoacetyl)-1,4-dimethyl-2-(thiazol-2-yl)-1H-pyrrole-3-carboxamide], the CC50 at 7 days [3] is reported as over 30000 nM and the EC50 (HBV [2]; [4]) is reported as over 1000 nM.

With `CC(=O)N1CC[C@@H](NC(=O)C(=O)c2c(C)c(C(=O)Nc3ccc(F)c(C)c3)c(C)n2C)[C@H](F)C1` [Example 147, 5-(2-(((3R,4R)-1-acetyl-3-fluoropiperidin-4-yl)amino)-2-oxoacetyl)-N-(4-fluoro-3-methylphenyl)-1,2,4-trimethyl-1H-pyrrole-3-carboxamide] the CC50 at 7 days [3] was over 30000 nM and the EC50 (HBV [2]; [4]) was under 50 nM.

For `Cc1cc(NC(=O)c2c(C)c(C(=O)C(=O)N[C@]3(C)CC[C@H](O)CC3)n(C)c2C2CCCCC2)ccc1F` [Example 118, 2-cyclohexyl-N-(4-fluoro-3-methylphenyl)-5-(2-(((1s,4s)-4-hydroxy-1-methylcyclohexyl)amino)-2-oxoacetyl)-1,4-dimethyl-1H-pyrrole-3-carboxamide], the CC50 at 7 days [3] was over 30000 nM and the EC50 (HBV [2]; [4]) was 500 to 1000 nM.
